Experimental data as given in patent US10633386B2, “BET protein degraders” (THE REGENTS OF THE UNIVERSITY OF MICHIGAN, priority 2016, dated 2020).

Tested on: TNBC cell lines
Assay: Combination apoptosis induction (immunoblotting and/or Annexin-PI staining)
Type: cell-based
Details: TNBC cell lines (FIGS. 15 and 16; ABT-263 data not shown)
Protocol: Immunoblotting and/or Annexin-PI staining confirmed that BM-1197 (250 nM), ABT-263 (250 nM), and A-1155463 (250 nM) potentiated Cpd. No. 4-induced apoptosis (50 nM) in MDA-MB-468 (FIG. 14) and other TNBC cell lines (data not shown). Synergistic induction of apoptosis by Cpd. […] No. 4-induced apoptosis in these cell lines. […] A with either BM-1197 (FIGS. 15 and 16) or ABT-263 (data not shown). […] No. 4 and BM-1197 was also detected in additional TNBC cell lines responsive to Cpd. No. 4-induced apoptosis (BT-20 and MDA-MB-157) (data not shown), further supporting that BCL-XL inhibitors potentiate Cpd. No. 4-induced apoptosis in TNBC.

CCn1nc(C2CC2)cc1Nc1nc(COC)nc2[nH]c3cc(-c4c(C)noc4C)c(OC)cc3c12 [Cpd. A, reference compound]
synergism with either BM-1197 or ABT-263: No clear synergism
